US6548052B2, “Antibacterial deodorizing compositions” (Innoscent Ltd., priority 1997, dated 2003)

What was measured:
[1] = tested on: S. epidermidis; assay: Inhibition test: samples applied onto bacterial lawns, growth inhibition zone; type: cell-based; conditions: for inhibition of S. epidermidis (in words): solvents in water, Table III
Procedure: (§1) The Extraction Process: […] The mixture was vortexed for 10 min and the samples were centrifuged for 30 min at 10000 rpm. The supernatant was collected and referred to as the extract. The extract was then filtered through a 0.22 or a 0.45 μm filter. Inhibition Test: The antimicrobial activity of the various extracts was examined by applying samples (5 μl) onto lawns of axillary bacteria. Following incubation of 24 hours at 37° C., inhibition was determined by measuring the diameter of the growth inhibition zone (in cm). In the tables, “+” indicates full growth inhibition(transparent zone), “−” indicates lack of inhibition, and “+/−” indicates partial inhibition (translucent zone). For the purposes of comparative testing, 5 μl aliquots of either red or black henna extracts (20% w/v in 20% v/v ethanol) are applied to the bacterial lawns.

[2] = tested on: C. xerosis; assay: as above; type: cell-based, Corynebacterium xerosis
Procedure: as §1

[3] = tested on: oral species; conditions: Didry et al. 1994; cited from earlier work
[4] = tested on: Streptococcus aureus; conditions: Handbook of Medicinal Herbs; cited from earlier work

With `CO` [METHANOL, methanol] the “Inhibition of S. epidermidis” value ([1]; solvent content 5%) was “−”, the “Inhibition of S. epidermidis” value ([1]; solvent content 10%) was “−” and the “Inhibition of S. epidermidis” value ([1]; solvent content 15%) was “−”. For the same compound, the “Inhibition of S. epidermidis” value ([1]; solvent content 20%) was “−”, the “Inhibition of S. epidermidis” value ([1]; solvent content 25%) was “−” and the “Inhibition of S. epidermidis” value ([1]; solvent content 30%) was “−”. The “Inhibition of S. epidermidis” value ([1]; solvent content 35%) was “−”, the “Inhibition of S. epidermidis” value ([1]; solvent content 40%) was “−” and the “Inhibition of S. epidermidis” value ([1]; solvent content 45%) was “−”. The “Inhibition of S. epidermidis” value ([1]; solvent content 50%) was “−”, the “Inhibition of S. epidermidis” value ([1]; solvent content 55%) was “−” and the “Inhibition of S. epidermidis” value ([1]; solvent content 60%) was “−”. The “Inhibition of S. epidermidis” value ([1]; solvent content 65%) was “−”, the “Inhibition of S. epidermidis” value ([1]; solvent content 70%) was “−” and the “Inhibition of S. epidermidis” value ([1]; solvent content 75%) was “−”. For the same compound, the “Inhibition of S. epidermidis” value ([1]; solvent content 80%) was “−”, the “Inhibition of S. epidermidis” value ([1]; solvent content 90%) was “−” and the “Inhibition of S. epidermidis” value ([1]; solvent content 100%) was “−”. For the same compound, the “inhibition of S. epidermidis (in words)” value [1] was “no inhibition”, the “inhibition of C. xerosis (in words)” value ([2]; above 45%) was “some inhibition” and the “Inhibition of C. xerosis” value ([2]; solvent content 5%) was “−”. The “Inhibition of C. xerosis” value ([2]; solvent content 10%) was “−”, the “Inhibition of C. xerosis” value ([2]; solvent content 15%) was “−” and the “Inhibition of C. xerosis” value ([2]; solvent content 20%) was “−”. The “Inhibition of C. xerosis” value ([2]; solvent content 25%) was “−”, the “Inhibition of C. xerosis” value ([2]; solvent content 30%) was “−” and the “Inhibition of C. xerosis” value ([2]; solvent content 35%) was “−”. For the same compound, the “Inhibition of C. xerosis” value ([2]; solvent content 40%) was “−”, the “Inhibition of C. xerosis” value ([2]; solvent content 45%) was “+/−” and the “Inhibition of C. xerosis” value ([2]; solvent content 50%) was “+/−”. The “Inhibition of C. xerosis” value ([2]; solvent content 55%) was “+/−”, the “Inhibition of C. xerosis” value ([2]; solvent content 60%) was “+/−” and the “Inhibition of C. xerosis, zone diameter” value ([2]; solvent content 60%) was 0.8 cm. For the same compound, the “Inhibition of C. xerosis” value ([2]; solvent content 65%) was “+/−”, the “Inhibition of C. xerosis, zone diameter” value ([2]; solvent content 65%) was 0.8 cm and the “Inhibition of C. xerosis” value ([2]; solvent content 70%) was “+/−”. The “Inhibition of C. xerosis, zone diameter” value ([2]; solvent content 70%) was 0.8 cm, the “Inhibition of C. xerosis” value ([2]; solvent content 75%) was “+/−” and the “Inhibition of C. xerosis, zone diameter” value ([2]; solvent content 75%) was 0.8 cm. For the same compound, the “Inhibition of C. xerosis” value ([2]; solvent content 80%) was “+/−”, the “Inhibition of C. xerosis, zone diameter” value ([2]; solvent content 80%) was 0.8 cm and the “Inhibition of C. xerosis” value ([2]; solvent content 90%) was “+/−”. The “Inhibition of C. xerosis, zone diameter” value ([2]; solvent content 90%) was 0.8 cm, the “Inhibition of C. xerosis” value ([2]; solvent content 100%) was “+/−” and the “Inhibition of C. xerosis, zone diameter” value ([2]; solvent content 100%) was 0.8 cm.
With `O=C1C=CC(=O)c2ccccc21` [1,4-naphthoquinone] the “Inhibition of S. epidermidis” value ([1]; 0.01% in ethanol 20%) was “−”, the “Inhibition of S. epidermidis” value ([1]; 0.02% in ethanol 20%) was “−” and the “Inhibition of S. epidermidis” value ([1]; 0.2% in ethanol 20%) was “+”. For the same compound, the “Inhibition of S. epidermidis, zone diameter” value ([1]; 0.2% in ethanol 20%) was 1.4 cm, the “growth inhibition of S. epidermidis (in words)” value ([1]; comment on Table I) was “inhibits the growth” and the “Inhibition of C. xerosis” value ([2]; 0.01% in ethanol 20%) was “−”. For the same compound, the “Inhibition of C. xerosis” value ([2]; 0.02% in ethanol 20%) was “−”, the “Inhibition of C. xerosis” value ([2]; 0.2% in ethanol 20%) was “+” and the “Inhibition of C. xerosis, zone diameter” value ([2]; 0.2% in ethanol 20%) was 0.8 cm. The “growth inhibition of C. xerosis (in words)” value ([2]; comment on Table I) was “inhibits the growth”.
For `O=C1C=C(O)C(=O)c2ccccc21` [lawsone], the “antibacterial activity against oral species” value [3] is given as “antibacterial activity”, the “Inhibition of S. epidermidis” value ([1]; 0.01% in ethanol 20%) is given as “−” and the “Inhibition of S. epidermidis” value ([1]; 0.02% in ethanol 20%) is given as “−”. The “Inhibition of S. epidermidis” value ([1]; 0.2% in ethanol 20%) was “−”, the “Inhibition of S. epidermidis” value ([1]; 1.0% in ethanol 50%) was “−” and the “Inhibition of S. epidermidis” value ([1]; 1.0% in ethanol 100%) was “−”. The “Inhibition of S. epidermidis” value ([1]; 1.0% in hot water) was “−”, the “Inhibition of C. xerosis” value ([2]; 0.01% in ethanol 20%) was “−” and the “Inhibition of C. xerosis” value ([2]; 0.02% in ethanol 20%) was “−”. For the same compound, the “Inhibition of C. xerosis” value ([2]; 0.2% in ethanol 20%) was “−”, the “Inhibition of C. xerosis” value ([2]; 1.0% in ethanol 50%) was “−” and the “Inhibition of C. xerosis” value ([2]; 1.0% in ethanol 100%) was “−”. The “Inhibition of C. xerosis” value ([2]; 1.0% in hot water) was “−”.
For `CCO` [ETHANOL, ethanol], the “Inhibition of S. epidermidis” value ([1]; solvent content 5%) was “−”, the “Inhibition of S. epidermidis” value ([1]; solvent content 10%) was “−” and the “Inhibition of S. epidermidis” value ([1]; solvent content 15%) was “−”. The “Inhibition of S. epidermidis” value ([1]; solvent content 20%) was “−”, the “Inhibition of S. epidermidis” value ([1]; solvent content 25%) was “−” and the “Inhibition of S. epidermidis” value ([1]; solvent content 30%) was “−”. The “Inhibition of S. epidermidis” value ([1]; solvent content 35%) was “−”, the “Inhibition of S. epidermidis” value ([1]; solvent content 40%) was “−” and the “Inhibition of S. epidermidis” value ([1]; solvent content 45%) was “−”. For the same compound, the “Inhibition of S. epidermidis” value ([1]; solvent content 50%) was “−”, the “Inhibition of S. epidermidis” value ([1]; solvent content 55%) was “−” and the “Inhibition of S. epidermidis” value ([1]; solvent content 60%) was “−”. For the same compound, the “Inhibition of S. epidermidis” value ([1]; solvent content 65%) was “−”, the “Inhibition of S. epidermidis” value ([1]; solvent content 70%) was “−” and the “Inhibition of S. epidermidis” value ([1]; solvent content 75%) was “−”. The “Inhibition of S. epidermidis” value ([1]; solvent content 80%) was “−”, the “Inhibition of S. epidermidis” value ([1]; solvent content 90%) was “−” and the “Inhibition of S. epidermidis” value ([1]; solvent content 100%) was “−”. The “inhibition of S. epidermidis (in words)” value [1] was “no inhibition”, the “inhibition of C. xerosis (in words)” value ([2]; above 40% (v/v) in water) was “some inhibition” and the “Inhibition of C. xerosis” value ([2]; solvent content 5%) was “−”. The “Inhibition of C. xerosis” value ([2]; solvent content 10%) was “−”, the “Inhibition of C. xerosis” value ([2]; solvent content 15%) was “−” and the “Inhibition of C. xerosis” value ([2]; solvent content 20%) was “−”. The “Inhibition of C. xerosis” value ([2]; solvent content 25%) was “−”, the “Inhibition of C. xerosis” value ([2]; solvent content 30%) was “−” and the “Inhibition of C. xerosis” value ([2]; solvent content 35%) was “−”. For the same compound, the “Inhibition of C. xerosis” value ([2]; solvent content 40%) was “+/−”, the “Inhibition of C. xerosis, zone diameter” value ([2]; solvent content 40%) was 0.2 cm and the “Inhibition of C. xerosis” value ([2]; solvent content 45%) was “+/−”. For the same compound, the “Inhibition of C. xerosis, zone diameter” value ([2]; solvent content 45%) was 0.2 cm, the “Inhibition of C. xerosis” value ([2]; solvent content 50%) was “+/−” and the “Inhibition of C. xerosis, zone diameter” value ([2]; solvent content 50%) was 0.6 cm. The “Inhibition of C. xerosis” value ([2]; solvent content 55%) was “+/−”, the “Inhibition of C. xerosis, zone diameter” value ([2]; solvent content 55%) was 0.6 cm and the “Inhibition of C. xerosis” value ([2]; solvent content 60%) was “+/−”. The “Inhibition of C. xerosis, zone diameter” value ([2]; solvent content 60%) was 0.8 cm, the “Inhibition of C. xerosis” value ([2]; solvent content 65%) was “+/−” and the “Inhibition of C. xerosis, zone diameter” value ([2]; solvent content 65%) was 0.8 cm. The “Inhibition of C. xerosis” value ([2]; solvent content 70%) was “+/−”, the “Inhibition of C. xerosis, zone diameter” value ([2]; solvent content 70%) was 0.8 cm and the “Inhibition of C. xerosis” value ([2]; solvent content 75%) was “+/−”. The “Inhibition of C. xerosis, zone diameter” value ([2]; solvent content 75%) was 0.8 cm, the “Inhibition of C. xerosis” value ([2]; solvent content 80%) was “+/−” and the “Inhibition of C. xerosis, zone diameter” value ([2]; solvent content 80%) was 0.8 cm. The “Inhibition of C. xerosis” value ([2]; solvent content 90%) was “+”, the “Inhibition of C. xerosis, zone diameter” value ([2]; solvent content 90%) was 1.1 cm and the “Inhibition of C. xerosis” value ([2]; solvent content 100%) was “+”. The “Inhibition of C. xerosis, zone diameter” value ([2]; solvent content 100%) was 1.3 cm.
For `O=C(O)c1cc(O)c(O)c(O)c1` [gallic acid], the “inhibition of “Streptococcus aureus”” value [4] is given as “slightly”, the “Inhibition of S. epidermidis” value ([1]; 0.2% in ethanol 20%) is given as “−” and the “Inhibition of S. epidermidis” value ([1]; 0.4% in ethanol 20%) is given as “+/−”. For the same compound, the “Inhibition of C. xerosis” value ([2]; 0.2% in ethanol 20%) was “−” and the “Inhibition of C. xerosis” value ([2]; 0.4% in ethanol 20%) was “−”.
